Values quoted from earlier work, collected in patent US20220265833A1, “ASPARTIC PROTEASE-TRIGGERED ANTIFUNGAL HYDROGELS” (priority 2017, published 2022).
Square brackets hold non-standard residues; d marks the D form. Ends that are not written are not given here. Phe(4-NO2) = N[C@@H](Cc1ccc([N+](=O)[O-])cc1)C(=O)O

Test system: Saps

Substance	rank of peptide-Sap catalytic efficiency
LRF(p-NO2)↓FLAPK (LR[Phe(4-NO2)]FLAPK) [LFFK]	In order of decreasing catalytic efficiencies, these peptides were: LFFK.AG, LFFK.A2, and LFFK
LAF(p-NO2)FGAPK (LA[Phe(4-NO2)]FGAPK) [LFFK.AG]	In order of decreasing catalytic efficiencies, these peptides were: LFFK.AG, LFFK.A2, and LFFK
LAF(p-NO2)FLAPK (LA[Phe(4-NO2)]FLAPK) [LFFK.A2]	In order of decreasing catalytic efficiencies, these peptides were: LFFK.AG, LFFK.A2, and LFFK
